Results reported in patent US20250098671A1, “CHITOSAN ENCAPSULATION OF OXYMATRINE AND TEA SAPONIN FOR USE IN PESTICIDAL ACTIVITY” (priority 2023, published 2025).

Key:
Black Sigatoka [1] = assay: Field trials against black Sigatoka in bananas; type: in vivo, Mycosphaerella fijiensis; details: applied as tank mixes with tea tree oil
Excerpt: Fungicides are combined in mixtures mainly: to widen the spectrum of antifungal activity and to extend its duration; to exploit the synergistic interaction between the compounds, whereby the overall activity can be increased or the amounts used can be reduced without loss of activity; and to delay or reduce the emergence of resistant strains. […] Although in principle, combinations of synthetic antifungal compounds could be used to reduce the chemical load of any particular compound applied to crops, concerns about resistance development at lower doses have militated against their use as advised by the Fungicide Resistance Action Committee (FRAC).

multiple insects = assay: Insecticidal activity on multiple insects; type: in vivo; details: 500 to 6,000 ppm
[2] = tested on: root-knot nematodes (Meloidogyne spp.); assay: Nematocidal activity on hatched root-knot nematodes in Petri dish; details: 15 nematodes; for Nematocidal efficiency (%): up to 3 days
Description: The tomato roots infected with root-knot nematodes were washed with running water and were then cut to a size of about 1 cm, after which 50 g of the cut roots were placed in a 500 ml round-bottom flask containing 200 ml of 0.5% sodium hypochloride (NaOCl), stopped with a rubber stopper, and shaken vigorously for 3 min to sterilize the roots and at the same time burst the egg bag. Thereafter, the solution was passed through a sieve in which 200 mesh was superimposed on 500 mesh, and washed with distilled water, so the eggs of the root-knot nematodes from which the NaOCl solution was removed were recovered.
Next, the eggs of the root-knot nematodes thus recovered were surface-sterilized with 0.5% NaOCl for 10 min, washed thoroughly with sterile distilled water, placed in a phosphate buffer (1%) containing sterilized normal saline, and hatched in an incubator at 25° C.
Thereafter, each mixed solution was diluted to 2000 ppm, 2 to 3 ml thereof was poured into a Petri dish, after which 15 hatched root-knot nematodes were placed in the Petri dish, and nematocidal activity was measured and the results thereof are shown in Table 1 below.
The number of root-knot nematodes used for the experiment on the number of killed root-knot nematodes was 15 at each dilution factor.

plant = assay: Plant phytotoxicity noted in development assessments
[3] = tested on: root-knot nematodes (Meloidogyne spp.); assay: Nematocidal activity assessed in development of embodiments; type: in vivo
Excerpt: Other embodiments may include the use of other monoterpene alcohols in place of geraniol. In some embodiments, a plant extract selected from the group consisting of a oxymatrine, neem extract, an Ostericum koreanum extract, Quillaja saponaria Molina and a clove extract may be added.

black Sigatoka [4] = assay: Black Sigatoka activity assessed in development of embodiments; details: in vivo
[5] = tested on: mosquitos and midge (Ae. aegypti, Culex species mosquitoes, Anopheles species mosquitoes); assay: Mosquito and midge adult activity; type: in vivo; details: 500 to 8,000 ppm
[6] = cited from earlier work
mildew, and anthracnose = assay: Fungicide activity of Geraniol oil; details: 500 to 4,000 ppm
tomato seedlings = assay: Phytotoxicity of geraniol, drenching treatment of potted tomato seedlings; type: in vivo; details: for Phytotoxicity symptom / Extent of phytotoxicity (0-5): Tomato, 1 week after treatment; for Extent of phytotoxicity (0-5): 50 ml drench
Excerpt: Sterilized soil was uniformly mixed, 300 g thereof was then placed in each pot, and tomato seedlings not infected with root-knot nematodes were transplanted thereto.

[7] = all the antioxidant assay systems; cited from earlier work
[8] = 2000 ppm dilution, mixed 1:1 with emulsifier PLE9

## CC1COC(Cn2cncn2)(c2ccc(Oc3ccc(Cl)cc3)cc2Cl)O1 (stereo not shown) [difenoconazole]
Black Sigatoka [1]
  control of Black Sigatoka: effectively controlled Black Sigatoka

## O=C1CCC[C@@H]2[C@H]3CCC[N+]4([O-])CCC[C@@H](CN12)[C@@H]34 (stereo partly shown) [Oxymatrine, oxymatrine]
Multiple insects
  insecticidal control: superior insecticidal control
[2]; [8]
  number of killed root-knot nematodes, 1 day: 7
  number of killed root-knot nematodes, 2 days: 9
  number of killed root-knot nematodes, 3 days: 10
plant; 500 to 6,000 ppm
  plant phytotoxicity: without plant phytotoxicity

## CC(C)=CCC/C(C)=C/CO [Geraniol, 3,7-dimethyl-2,6-octadien-1-ol]
[3]; 500 to 4,000 ppm
  nematocidal control: superior nematocidal control
[3]; utilized alone
  nematocidal activity: superior nematocidal activity
Black Sigatoka [4]
  control of the black sigatoka fungus: also effective against the fungus
[2]; [8]
  number of killed root-knot nematodes, 1 day: 15ª
[2]; Geraniol 2,000 ppm
  number of killed root-knot nematodes, 1 day: 15
plant; 500 to 4,000 ppm
  plant phytotoxicity: without plant phytotoxicity
plant; 500 to 8,000 ppm
  plant phytotoxicity or water toxicology: without plant phytotoxicity or water toxicology
plant; 4,500 ppm or more
  plant phytotoxicity: plant phytotoxicity was shown to occur
[5]
  mosquito and midge control: superior mosquito and midge control
[6]; most common organic solvents
  solubility in organic solvents: soluble in most common organic solvents
[6]; water
  solubility in water: insoluble in water
mildew, and anthracnose
  fungicidal control: superior fungicidal control
Tomato seedlings; 4000 ppm or more
  phytotoxicity symptoms in tomato seedlings: all tomato seedlings collapsed and withered
Tomato seedlings; Geraniol 100 ppm
  Phytotoxicity symptom: No
  Extent of phytotoxicity (0-5): 0
Tomato seedlings; Geraniol 200 ppm
  Phytotoxicity symptom: No
  Extent of phytotoxicity (0-5): 0
Tomato seedlings; Geraniol 330 ppm
  Phytotoxicity symptom: No
  Extent of phytotoxicity (0-5): 0
Tomato seedlings; Geraniol 500 ppm
  Phytotoxicity symptom: No
  Extent of phytotoxicity (0-5): 0
Tomato seedlings; Geraniol 1,000 ppm
  Phytotoxicity symptom: No
  Extent of phytotoxicity (0-5): 0
Tomato seedlings; Geraniol 2,000 ppm
  Phytotoxicity symptom: No
  Extent of phytotoxicity (0-5): 0
Tomato seedlings; Geraniol 3,000 ppm
  Phytotoxicity symptom: No
  Extent of phytotoxicity (0-5): 0
Tomato seedlings; Geraniol 4,000 ppm
  Phytotoxicity symptom: Withered
  Extent of phytotoxicity (0-5): 5
Tomato seedlings; Geraniol 5,000 ppm
  Phytotoxicity symptom: Withered
  Extent of phytotoxicity (0-5): 5
Tomato seedlings; Geraniol 10,000 ppm
  Phytotoxicity symptom: Withered
  Extent of phytotoxicity (0-5): 5
Tomato seedlings; Geraniol 20,000 ppm
  Phytotoxicity symptom: Withered
  Extent of phytotoxicity (0-5): 5
Tomato seedlings; concentration range of 100 ppm to 3,000 ppm
  phytotoxicity symptoms in tomato seedlings: no particular phytotoxicity symptoms

## O=c1c(O)c(-c2ccccc2)oc2cc(O)cc(O)c12 [Galangin, galangin]
[7]
  antioxidant activity: comparable activity with that of AEP and EEP

## C/C=C(\C)C(=O)O[C@H]1C[C@@H](OC(C)=O)[C@@]2(C(=O)OC)CO[C@H]3[C@@H](O)[C@@](C)([C@]45O[C@@]4(C)[C@H]4C[C@@H]5O[C@@H]5OC=C[C@@]54O)[C@H]4[C@]1(CO[C@]4(O)C(=O)OC)[C@@H]32 [Azadirachtin, azadirachtin]
[2]; [8]
  number of killed root-knot nematodes, 1 day: 7
  number of killed root-knot nematodes, 2 days: 8
  number of killed root-knot nematodes, 3 days: 10
[2]; 2000 ppm dilution
  Nematocidal efficiency (%): 66.7%

## CON=C(C(=O)OC)c1ccccc1CON=C(C)c1cccc(C(F)(F)F)c1 [trifloxystrobin]
Black Sigatoka [1]
  control of Black Sigatoka: effectively controlled Black Sigatoka

## pyrethrin
[2]; [8]
  number of killed root-knot nematodes, 1 day: 5
  number of killed root-knot nematodes, 2 days: 6
  number of killed root-knot nematodes, 3 days: 11
[2]; 2000 ppm dilution
  Nematocidal efficiency (%): 73.3%
